“Also recorded” adds a separate entry of the source.
Columns and labels:
murine B16 tumor cells = experiment: Intraperitoneal tumor assay (CAT DNA, CAT activity in tumors); format: in vivo, C57/B16 mice; settings: 0.5 mg CAT DNA i.p., 10:1 molar ratio of cytofectin:DNA, tumors two days later, FIG. 5; for CAT expression in tumor cells: control DNA alone
Description: Two hundred thousand murine B16 tumor cells in 500 μl RPMI were injected intraperitoneally into C57/B16 mice at day 0. At day 7-14, mice received intraperitoneal injections of 0.5 mg CAT DNA in 1.5 ml saline containing cytofectin at a 10:1 molar ratio of cytofectin:DNA. The cationic lipids used were DMRIE, GAP-DMRIE, GAP-DLRIE, and GMU-DLRIE. Two days later, tumors were collected, extracted and assayed for CAT activity as described in Example 7. The CAT activities observed with the cytofectin formulations is compared to a control receiving DNA alone in FIG. 5. […] CAT activity was greatest in cells transfected with DMRIE.

COS7 monkey kidney cells = experiment: In vitro transfection of COS7 cells (pRSV lacZ, β-galactosidase expression; DMRIE as reference standard); format: cell-based; settings: for Activity Cos7: cytofectin activity relative to DMRIE, comparison symbols, key not given
Description: (§1) Solutions of a DMRIE or GMU-DMRIE in chloroform were prepared on a weight to volume (w/v) basis. Aliquots of cationic lipid and neutral lipid (when used) were transferred aseptically to sterile vials in amounts calculated to provide the relative and absolute lipid concentrations desired upon reconstitution with 1 ml of aqueous vehicle. Bulk chloroform was removed with a stream of dry nitrogen, and the vials were treated with high vacuum overnight to remove any residual solvent.
(§2) Plasmid DNA at 5 mg/ml of phosphate buffered saline (PBS) as well as the dried, formulated cytofectin-neutral lipid mixture were suspended in OPTIMEM™ (Gibco BRL) and mixed together in 96 well plates at the desired mass/molar ratio as indicated in the Tables. The DNA-lipid complexes were added to the cells within 2 hours after mixing.
(§3) All cells were passaged 1:5 to 1:10 in 10% fetal bovine serum (FBS) and Dulbecco's Modified Eagles medium (DMEM). All cells were expanded through 10 doubling passages upon receipt and aliquots were stored frozen. Upon re-expansion, all cells were used for transfection studies before another 10 passages.
(§4) On day 0, 20,000 cells in 100 microliters 10% FEBS/90% DMEM were seeded into each well of 96-well culture plates (Nunc) and cultured overnight in a 5% CO2 incubator at 37° C. On Day 1, the medium was aspirated carefully without dislodging cells, and 100 microliters of GMU-DMRIE/pRSV lacZ/DOPE in serum-free OPTIMEM™ (Gibco BRL) was added. DMRIE was used as a reference standard. The lacZ gene encodes the enzyme β-galactosidase which can be assayed colorimetricaly. The cationic lipid:DOPE ratios varied for each well. After 4 hours of culture, 50 microliters 30% FBS/70% OPTIMEM™ was added to each well. On Day 2, each well received 100 microliters 10% FEBS/90% OPTIMEM™. On Day 3, the medium was removed and 50 microliters lysis buffer (0.1% Triton-X100 in 250 mM Tris, pH 8.0) was added and the plates were stored at […] for at least 20 hours.

[1] = test system: C2C12 mouse myoblast muscle cells; experiment: In vitro transfection of C2C12 cells (pRSV lacZ, β-galactosidase expression; DMRIE as reference standard); format: cell-based; settings: for Activity C2C12: cytofectin activity relative to DMRIE, comparison symbols, key not given
Description: as §1, §2, §3, §4

[2] = test system: influenza nuclear protein (NP) antibody titers; format: in vivo, Balb/c mice; settings: cytofectin:DOPE 1:1, pDNA-phosphate/cytofectin 4:1, serum at 6 weeks, FIG. 6; for activity in NP antibody assay compared with naked DNA alone: 10 μgr pDNA per animal, day 0 and 3 weeks
BF16F10 melanoma tumors = experiment: Subcutaneous melanoma tumor model (intratumoral cytofectin/CAT plasmid complex, CAT activity); format: in vivo, BALB/C mice; settings: intratumoral injection; tumors collected after 48 hours; FIG. 7
Description: Tumors are prepared by injecting a suspension of tumor cells subcutaneously on the side of a mouse strain which is compatible with the specific tumor type. The tumors are periodically measured. Once they have reached a size suitable for injection, the tumor volume is approximated based on the measured diameter assuming a spherical tumor. A complex of the cytofectin to be evaluated with a plasmid encoding a reporter gene in a volume of saline equal to the volume of the tumor to be treated is then injected at a flow rate optimized for the particular tumor type. After an appropriate time, the tumors are collected, frozen, then ground up. The reporter gene product is subsequently extracted and the quantity which was expressed is determined using extraction and assay conditions appropriate for the particular gene product being used. A variety of tumor types may be evaluated using this general technique, and different reporter genes are more or less appropriate depending on the tumor type. A specific example of this assay involving melanoma tumors is provided in Example 14 below.
BF16F10 melanoma tumors are propagated in 90% RPMI 1640/10% Fetal Bovine Serum. The tumors are injected subcutaneously into the side of BALB/C mice in 75 μL of a suspension containing approximately 10^6 cells/mL tissue culture medium. When the tumors have reached 4.5 to 7 mm in diameter the volume of each individual tumor is calculated by measuring the diameter of the tumor and assuming a spherical tumor. For each individual tumor, a volume of the cytofectin/CAT plasmid complex in saline equivalent to the calculated volume of the tumor is injected into the tumor at a rate of 2 mL/min. After 48 hours, the tumors are collected, frozen, ground up, and extracted with 1.5 mL of extraction buffer as described in Example 3. CAT activity is quantitated as described below. […]

Compound	Activity Cos7 (COS7 monkey kidney cells)	Activity C2C12 [1]	activity in NP antibody assay compared with naked DNA alone [2]	further results
CCCCCCCCCCCCCCOCC(C[N+](C)(C)CCO)OCCCCCCCCCCCCCC.[Br-] (racemic) [DMRIE, 1-propanaminium, N-(2-hydroxyethyl)-N,N-dimethyl-2,3-bis(tetradecyloxy)-bromide, (±)-, reference compound]	–	–	–	CAT activity, cytofectins compared with one another (murine B16 tumor cells): greatest; CAT expression in tumor cells (murine B16 tumor cells): significant CAT expression
CCCCCCCCCCCCCCOCC(C[N+](C)(C)CCNC(=O)NC)OCCCCCCCCCCCCCC.[Br-] (stereo not drawn) [BMU, β-aminoethyl-DMRIE,Methyl Urea]	≧	≦	greater activity than naked DNA alone	activity in NP antibody assay, among the compounds tested [2]: particularly high activity
CCCCCCCCCCCCOCC(C[N+](C)(CCCN)CCCN)OCCCCCCCCCCCC (centres unmarked) [BPA-DLRIE]	–	–	greater activity than naked DNA alone	activity in NP antibody assay, among the compounds tested [2]: particularly high activity
CCCCCCCCCCCCCCOCC(C[N+](C)(CCCN)CCCN)OCCCCCCCCCCCCCC (centres unmarked) [BPA-DMRIE]	–	–	greater activity than naked DNA alone	activity in NP antibody assay, among the compounds tested [2]: particularly high activity; CAT activity in subcutaneous melanoma, among the compounds tested (BF16F10 melanoma tumors): particularly high activity
CCCCCCCCCCCCCCOCC(C[N+](C)(C)CCCCNC(=O)NC)OCCCCCCCCCCCCCC.[Br-] (centres unmarked) [DMU, δ-aminobutyl DMRIE, Methyl Urea]	–	≧	–	–
CCCCCCCCCCCCOCC(C[N+](C)(C)CCCN)OCCCCCCCCCCCC (centres unmarked) [GAP-DLRIE]	–	–	–	CAT activity, cytofectins compared with one another (murine B16 tumor cells): nearly as effective as DMRIE; also recorded: significant activity; CAT expression in tumor cells (murine B16 tumor cells): significant CAT expression
CCCCCCCCCCCCCCOCC(C[N+](C)(C)CCCN)OCCCCCCCCCCCCCC (centres unmarked) [GAP-DMRIE]	–	–	–	CAT activity, cytofectins compared with one another (murine B16 tumor cells): significant activity; CAT expression in tumor cells (murine B16 tumor cells): significant CAT expression
CCCCCCCCCCCCCCOCC(C[N+](C)(C)CCCNC(=O)NC)OCCCCCCCCCCCCCC (centres unmarked) [GMU, γ-aminopropyl-DMRIE,Methyl Urea]	≧	≈	–	levels of β-gal activity compared with DMRIE (COS7 monkey kidney cells; COS7 cells): higher levels of activity than those achieved by DMRIE; Total β-gal expression (COS7 monkey kidney cells; COS7 cells, GMU-DMRIE alone (no DOPE)): significantly decreased; total expression of β-gal (COS7 monkey kidney cells; COS7 cells, GMU-DMRIE/DOPE ratio of 75:25): highly effective; levels of total β-gal activity compared with DMRIE ([1]; C2C12 cells): significantly higher levels of total activity than DMRIE; Total β-gal expression ([1]; C2C12 cells, GMU-DMRIE alone (no DOPE)): significantly decreased
CCCCCCCCCCCCOCC(C[N+](C)(C)CCCNC(=O)NC)OCCCCCCCCCCCC (centres unmarked) [GMU-DLRIE]	–	–	–	CAT expression in tumor cells (murine B16 tumor cells): significant CAT expression
CCCCCCCCCCCCCCOCC(C[N+](C)(C)CCCNC(N)=S)OCCCCCCCCCCCCCC (centres unmarked) [GTU-DMRIE, DMRIE-γ-thiourea]	–	–	–	CAT activity in subcutaneous melanoma, among the compounds tested (BF16F10 melanoma tumors): particularly high activity
CCCCCCCCCCCCCCOCC(C[N+](C)(CCCN)CCCCN)OCCCCCCCCCCCCCC (centres unmarked) [PABA-DMRIE]	–	–	greater activity than naked DNA alone	activity in NP antibody assay, among the compounds tested [2]: particularly high activity
DMRIE Methyl carbamate [βMC]	≈	≈	–	–
DMRIE carboxylate (methionine-methyl ester) amide [DOx-Met-OMe]	–	<	–	–
Hydroxybutyl DMRIE Methyl Carbamate [δMC]	≈	≈	–	–
Hydroxypropyl DMRIE Methyl Carbamate [ΥMC]	≈	≈	–	–
Serine-δ-DMRIE amide [δ-ser-DMRIE]	≈	≦	–	–
pGlutamate-histidine-proline-γ-DMRIE amide [TRH-γ-DMRIE]	≈	–	–	–
γ-aminopropyl-DMRIE, Arginine Methyl Ester Urea [Arg(OMe)-GU-DMRIE]	–	–	–	CAT activity in subcutaneous melanoma, among the compounds tested (BF16F10 melanoma tumors): particularly high activity
γ-aminopropyl-DMRIE, α-arabonosyl thiourea [Ara-TU-DMRIE]	≈	<	greater activity than naked DNA alone	–
γ-aminopropyl-DMRIE,α-galactosyl thiourea [Gal-TU-DMRIE]	≧	≈	greater activity than naked DNA alone	–
γ-aminopropyl-DMRIE,α-glucosyl thiourea [Glc-TU-DMRIE]	≧	≦	greater activity than naked DNA alone	–

— patent publication US8541628B2, “Complex cationic lipids having quaternary nitrogens therein” (Vical Incorporated, priority 1995, dated 2013)
